Measured values published in US7371721B2, “Use of GLP-2 and related compounds for the treatment, prevention, diagnosis, and prognosis of bone-related disorders and calcium homeostasis related syndromes” (priority 2000, dated 2008).
No end group written: not given here.

Experiments:
[1] = in vivo; cited from earlier work
[2] = tested on: ovariectomized induced bone loss; assay: Ovariectomized induced bone loss in aged rats, 6 week study; assay type: in vivo, female Sprague Dawley rats; settings: 6 weeks, in comparison to the untreated controls
Protocol: The following is a protocol suitable to test whether GLP-2A at 250 μg/kg s.c. twice daily can inhibit ovariectomized induced bone loss in aged rats.
• Test articles: GLP-2 analogue (Gly2)GLP-2: […]OH. • Vehicle: 0.5% gelatin/PBS (degassed) Gelatin A: Cat. No. 325910, batch no. 273622 (Unikem, Copenhagen, Denmark). PBS: Dubecco's Phosphate buffered saline (BioWhitaker cat.no.BE17-512F) • Positive control: 17β-estradiol pellet 0.5 mg/60 days release implanted subcutaneous (SE-121 Innovative Research of America) A dose of 250 μg/kg is administered by subcutaneous injections twice daily (10-12 hours apart). The injection site will vary according to the injection scheme. The dose is calculated as follow: the weight ofthe rat in kg=the dose in ml; e.g. 0.301kg=0.30 ml Experimental System: The study is performed in 50 female Sprague Dawley rats in 4 groups each of 12 or 13 rats. Surgery: • The rats are anaesthetized with Hypnorm-Domicum (1 part Hypnorm+1 part Dormicum+2 part sterile dI water. The rats are given 0.15 ml/100 g body weight). Ovariectomy (OVX) or sham operations are performed via a midline incision in the back of the rats. […] The wet weight and length of the small intestine and the colon will be recorded. […] Bones are assessed by PQCT, trabecular strength and histomorphologic analysis.

clinical = settings: both sexes, human, in vivo, sc
Protocol: (§1) In these Examples, hematology and serum chemistry including glucose were measured using an auto analyzer (Vitros). Serum […] was measured by IRMA (Coat-A-Count®, DPC, Los Angeles, Calif.). Serum C-telopeptide fragments of collagen type I degradation (S-CTX) were measured by ELISA, Serum CrossLaps™ assay (Osteometer BioTech A/S—Denmark). Serum osteocalcin was determined by ELISA, an assay which determines the N-terminal mid segment of the molecule. Serum insulin and c-peptide were both assessed by RIA (Coat-A-Count® for insulin and Double Antibody C-peptide for c-peptide both DPC, Los Angeles, Calif.). Total GIP was measured using the C-terminally directed antiserum R65, which reacts with the intact GIP (1-42) and the N-terminally truncated metabolite, GIP (3-42) (Krarup T, Holst J J 1984 The heterogeneity of gastric inhibitory polypeptide in porcine and human gastrointestinal mucosa evaluated with five different antisera. Regul Pept 9:35-46. ). GLP-2 was measured with a N-terminal specific antiserum code no. 92160, measuring only GLP-2 with an intact N-terminus. GLP-1 in plasma samples was measured using a RIA assay specific for the C-terminus of the GLP-1 molecule, using standards of synthetic GLP-1 (7-36) amide and antiserum no. […] GLP-1 is measured in Example 1 as a marker for the effect of the tested materials on GLP-2 levels. […]

S-CTX (bone resorption) = assay: Serum S-CTX (Serum CrossLaps ELISA) as marker of bone resorption in human subjects; assay type: in vivo
Protocol: as §1

[3] = tested on: fractures in postmenopausal osteoporosis; settings: cited from earlier work
GIP = assay: Total GIP level (antiserum R65); assay type: in vivo, human; settings: oral 75 g fructose
Protocol: as §1

GLP-1 = assay: Plasma GLP-1 level (RIA), in Examples 1 and 2 as marker for GLP-2; assay type: in vivo, human; settings: after 2 hours, compared to the baseline of 100% at T0; oral 75 g fructose
Protocol: as §1

PTH: parathyroid hormone treatment (teriparatide and related compounds) discussed in the cited studies
hypercalcemia and related symptoms, share of treated individuals [1]: about 11%

His-Gly-Asp-Gly-Ser-Phe-Ser-Asp-Glu-Met-Asn-Thr-Ile-Leu-Asp-Asn-Leu-Ala-Ala-Arg-Asp-Phe-Ile-Asn-Trp-Leu-Ile-Gln-Thr-Lys-Ile-Thr-Asp-OH (HGDGSFSDEMNTILDNLAARDFINWLIQTKITD-OH) [(Gly2)GLP-2]
protection against bone density loss following the OVX procedure [2]: protected against bone density loss

CC[C@H](C)[C@H](NC(=O)[C@H](Cc1ccccc1)NC(=O)[C@H](CC(=O)O)NC(=O)[C@H](CCCNC(=N)N)NC(=O)[C@H](C)NC(=O)[C@H](C)NC(=O)[C@H](CC(C)C)NC(=O)[C@H](CC(N)=O)NC(=O)[C@H](CC(=O)O)NC(=O)[C@H](CC(C)C)NC(=O)[C@@H](NC(=O)[C@@H](NC(=O)[C@H](CC(N)=O)NC(=O)[C@H](CCSC)NC(=O)[C@H](CCC(=O)O)NC(=O)[C@H](CC(=O)O)NC(=O)[C@H](CO)NC(=O)[C@H](Cc1ccccc1)NC(=O)[C@H](CO)NC(=O)CNC(=O)[C@H](CC(=O)O)NC(=O)[C@H](C)NC(=O)[C@@H](N)Cc1c[nH]cn1)[C@@H](C)O)[C@@H](C)CC)C(=O)N[C@@H](CC(N)=O)C(=O)N[C@@H](Cc1c[nH]c2ccccc12)C(=O)N[C@@H](CC(C)C)C(=O)N[C@H](C(=O)N[C@@H](CCC(N)=O)C(=O)N[C@H](C(=O)N[C@@H](CCCCN)C(=O)N[C@H](C(=O)N[C@H](C(=O)N[C@@H](CC(=O)O)C(=O)O)[C@@H](C)O)[C@@H](C)CC)[C@@H](C)O)[C@@H](C)CC [GLP-2]
Tmax (clinical): 1 h | reduction in S-CTX (S-CTX (bone resorption); after 3 hours, subcutaneous bolus injection of 400 μg, healthy women and men): 35%

C[C@]12CC[C@@H]3c4ccc(O)cc4CC[C@H]3[C@@H]1CC[C@@H]2O [17β-estradiol]
protection against bone density loss following the OVX procedure [2]: protected against bone density loss

CC[C@H](C)[C@H](NC(=O)[C@H](CCC(=O)O)NC(=O)[C@H](CO)NC(=O)[C@@H](NC(=O)[C@@H](N)CO)C(C)C)C(=O)N[C@@H](CCC(N)=O)C(=O)N[C@@H](CC(C)C)C(=O)N[C@@H](CCSC)C(=O)N[C@@H](Cc1cnc[nH]1)C(=O)N[C@@H](CC(N)=O)C(=O)N[C@@H](CC(C)C)C(=O)NCC(=O)N[C@@H](CCCCN)C(=O)N[C@@H](Cc1cnc[nH]1)C(=O)N[C@@H](CC(C)C)C(=O)N[C@@H](CC(N)=O)C(=O)N[C@@H](CO)C(=O)N[C@@H](CCSC)C(=O)N[C@@H](CCC(=O)O)C(=O)N[C@@H](CCCN=C(N)N)C(=O)N[C@H](C(=O)N[C@@H](CCC(=O)O)C(=O)N[C@@H](Cc1c[nH]c2ccccc12)C(=O)N[C@@H](CC(C)C)C(=O)N[C@@H](CCCN=C(N)N)C(=O)N[C@@H](CCCCN)C(=O)N[C@@H](CCCCN)C(=O)N[C@@H](CC(C)C)C(=O)N[C@@H](CCC(N)=O)C(=O)N[C@@H](CC(=O)O)C(=O)N[C@H](C(=O)N[C@@H](Cc1cnc[nH]1)C(=O)N[C@@H](CC(N)=O)C(=O)N[C@@H](Cc1ccccc1)C(=O)O)C(C)C)C(C)C [teriparatide]
effect on new non-vertebral fractures ([3]; by the end of the 21-month treatment period): −35% | decrease in occurrence of new vertebral fractures ([3]; subcutaneous daily dose 20 μg, Caucasian women (70 years of age)): 65% | reduction of moderate-to-severe fractures ([3]; subcutaneous daily dose 20 μg): 90% | reduction of multiple vertebral fractures ([3]; subcutaneous daily dose 20 μg): 77%

O=C(CO)[C@@H](O)[C@H](O)[C@H](O)CO [Oral fructose, fructose]
level of GIP (GIP): almost maintained at baseline | level of GLP-2 (measured as GLP-1) (GLP-1): 220% | reduction in S-CTX (S-CTX (bone resorption); after 2 hours, oral 75 g fructose in 300 ml water, fasted healthy women and men): 36%
